The values that follow come from patent US11065259B2, “Methods of treating pruritus” (Duke University, priority 2014, dated 2021).

The assay relates to pruritus (itch). The assay is described as follows: Topical administration to human subjects with psoriasis-associated pruritus. As to conditions: person. Format: in vivo. The protocol: The efficacy of Manganese ortho tetrakis(N-n-butoxyethylpyridinium-2-yl)porphyrin (MnTnBuOE-2-PyP^5+) in treating pruritus (itch) when topically applied was evaluated in a person with large areas of moderately severe plaque-forming psoriasis on upper and lower portions of both legs, with each involved area being approximately 10-20 cm in diameter. These lesions were markedly excoriated with intense, persistent symptoms of pruritus. MnTnBuOE-2-PyP^5+ was formulated in Lipoderm at 0.01% and 0.1% concentrations producing a light brown cream which was applied b.i.d. to lesions on one extremity. Symptoms of pruritus were relieved within 10 to 15 minutes after topical application of MnTnBuOE-2-PyP^5+ and remained under control for several hours.
A second subject with psoriatic involvement of the scalp of moderate severity and associated with marked pruritus and scratching was topically treated with MnTnBuOE-2-PyP^5+ 0.1% in Lipoderm twice daily for 3 weeks.

[1] abbreviates: plaque-forming psoriasis on both legs, 0.01% and 0.1% in Lipoderm, topical b.i.d.
[2] abbreviates: psoriatic involvement of the scalp, 0.1% in Lipoderm, topical twice daily for 3 weeks.

Turning to “Manganese ortho tetrakis(N-n-butoxyethylpyridinium-2-yl)porphyrin [MnTnBuOE-2-PyP^5+]”, under setting [1], the “time after topical application until symptoms of pruritus were relieved” value was 10 to 15 min and the “time symptoms of pruritus remained under control” value was “several hours”. In addition, where the note is “plaque-forming psoriasis on both legs, lesions treated with 0.01% vs 0.1% in Lipoderm”, the “comparison of efficacy of 0.01% and 0.1% concentrations” value was “Equivalent efficacy”. Besides, for the setting “plaque-forming psoriasis on both legs, repeat topical application in Lipoderm”, the “effect of repeat application on pruritus” value was “consistently reduced pruritus without tachyphylaxis”. Under setting [2], the “resolution of pruritic symptoms” value is reported as “completely effective in resolving pruritic symptoms”, the “time after application until symptoms of pruritus were relieved” value is given as “within minutes” and the “time symptoms of pruritus remained under control” value is on record as “up to 12 hours”.
